Results on two molecules are retold here after patent US20110028513A1, “METHOD FOR TREATING NEUROLOGICAL DISORDERS WITH IMIDAZOLIUM AND IMIDAZOLINIUM COMPOUNDS” (priority 2008, published 2011).

The structures appear in SMILES notation. “Also recorded” adds a separate entry of the source.

The subject of data set [1] is transgenic GFAP-GFP mice. Briefly: In vivo retinal imaging (scanning laser ophthalmoscope) of GFP fluorescence in the optic disc of 2′-CH3-MPTP-treated mice. The protocol:
(§1) The generation and genotyping of the transgenic GFAP (glial fibrillary acidic protein)-GFP (green fluorescent protein) mice were performed as previously described (Zhuo et al., 1997, See PCT Application No. PCT/SG2008/000159). Adult mice (8-10 weeks old) in the Friend virus B-Type (FVB/N) background were used in this study. Animal husbandry was provided by the Biological Resource Center (BRC) of Biopolis, Singapore. The experimental protocol for this study was approved by the Institutional Animal Care and Use Committee at BRC.
The synthesis of DBZIM has been described. (See PCT Application No. SG2009/000037, Zhang et al., 2007). The structure of DBZIM is illustrated in FIG. 1. […] The dosing regime is illustrated in FIG. 2. Mice in the DBZIM/neurotoxicant-treated group received an intraperitoneal (ip) injection of DBZIM (25 mg/kg in saline) 24 h before and after administering 4 ip injections of 2′-CH3-MPTP (15 mg/kg in saline; once every 2 h). Mice in the neurotoxicant-treated group were injected with 2′-CH3-MPTP only (4×15 mg/kg in saline; ip; once every 2 h). For each mouse in the DBZIM/neurotoxicant-treated group (n=5) and neurotoxicant-treated group (n=5), saline was used as a vehicle for the control group (n=6). Retinal imaging was performed before and after treatment.
Mice were anesthetized by ip injections with 0.15 ml/10 g body weight of Avertin (1.5% 2,2,2-tribromoethanol; T48402) purchased from Sigma-Aldrich (St. Louis, Mo., USA). Their pupils were dilated with a drop of 0.5% Cyclogyl® sterile ophthalmic solution (cyclopentolate hydrochloride, Alcon®, Puurs, Belgium). Custom-made polymethylmethacrylate (PMMA) hard contact lenses (Cantor & Nissel, Northamptonshire, UK) were used to avoid dehydration of the cornea. Careful examination by an eye specialist before scanning laser ophthalmoscope (SLO) imaging ruled out the presence of any corneal or lens opacity.
The second version of Heidelberg Retina Angiograph (HRA II) SLO (Heidelberg Engineering, Dossenheim, Germany) was modified for use on mice. SLO is an imaging technique based on the scanning of the fundus with a laser beam from a point source; the reflected light is detected by a photomultiplier. The incident and reflected light beams follow a co-axial path. Therefore, more light can pass through small eyes with SLO than with conventional fundus cameras. […]
Unlike magnetic resonance images (MRI) and in vitro fluorescent-labeled cell images, the in vivo fluorescence images of transgenic GFAP-GFP expression in the mouse retina have very low signal-to-noise ratio (SNR), which makes the quantitative analysis of the transgene expression difficult. […]

In data set [2] the test system is transgenic GFAP-GFP mice. Nature of the data set: Retinal whole-mount and cross-section immunohistochemistry (GFP/GFAP) for 2′-CH3-MPTP-induced gliosis. Type of data set: in vivo. The following applies: DBZIM 25 mg/kg ip plus 2′-CH3-MPTP. The protocol:
as §1
(§2) The synthesis of DBZIM has been described. (See PCT Application No. SG2009/000037, Zhang et al., 2007). The structure of DBZIM is illustrated in FIG. 1. […] The dosing regime is illustrated in FIG. 2. Mice in the DBZIM/neurotoxicant-treated group received an intraperitoneal (ip) injection of DBZIM (25 mg/kg in saline) 24 h before and after administering 4 ip injections of 2′-CH3-MPTP (15 mg/kg in saline; once every 2 h). […]
(§3) After perfusion with 1× PBS, followed by 4% fresh paraformaldehyde (in 1× PBS, pH 7.4), the mouse brains were harvested and the eyes enucleated. […] The retinas, free of the choroid and sclera tissues, were whole-mounted on a glass slide with Vectorshield mounting medium for fluorescence (Vector Laboratories, Inc., Burlingame, Calif., USA; H1000). […]

For data set [3], the system named is transgenic GFAP-GFP mice. Nature of the data set: Brain cryosection immunohistochemistry (GFP/TH) of striatum and SNpc after 2′-CH3-MPTP. The class given is in vivo. The conditions noted are these: DBZIM 25 mg/kg ip plus 2′-CH3-MPTP. The protocol: as §1, §2, §3

Take `Cc1ccccc1C1=CCN(C)CC1` [2′-CH3-MPTP, methyl-4(2′-methylphenyl)-1,2,3,6-tetrahydropyridine, reference compound]: the “fluorescence intensity (FI) in the optic disc over saline control, in words” value with transgenic GFAP-GFP mice [1] (2′-CH3-MPTP alone, 4 x 15 mg/kg ip, P<0.05, FIG. 4) is “significant increase”. Also, the “increase in GFP fluorescence of the optic disc” value in the data set on transgenic GFAP-GFP mice [1] (neurotoxicant alone, 4 x 15 mg/kg ip once every 2 h, versus saline control, FIG. 4) was 36%.

`[Br-].c1ccc(Cn2cc[n+](Cc3ccccc3)c2)cc1` [DBZIM, 1,3-bisbenzylimidazolium bromide]: the “gliosis in retinal whole-mounts (GFP green and GFAP red fluorescence, nerve fiber layer)” value with transgenic GFAP-GFP mice [2] (FIG. 5) is “attenuated both green and red fluorescence to the basal levels; also recorded: significantly attenuates the gliosis”. In addition, the “gliosis in retinal astrocytes and Müller cells (retinal cross-sections)” value in the data set on transgenic GFAP-GFP mice [2] (FIG. 6) was “reduced the neurotoxicant-induced gliosis to close to the basal level; also recorded: significantly attenuated”. Further, in the data set with transgenic GFAP-GFP mice [3] (SNpc, FIG. 8), the “DA neuron depletion in the SNpc (TH immunoreactivity)” value is on record as “A significant portion of the DA neurons is protected”. For the same molecule, in the data set with transgenic GFAP-GFP mice [3] (striatum, FIG. 7), the “striatal gliosis (GFP signal)” value is “cut down the gliosis in the striatum to a basal level; also recorded: significantly attenuates the neurotoxicity”. Further, the “change in GFP fluorescence (fluorescence intensity) of the optic disc versus saline control” value in the data set on transgenic GFAP-GFP mice [1] (DBZIM 25 mg/kg ip 24 h before and after 4 x 15 mg/kg ip 2′-CH3-MPTP, quantified by algorithm, FIG. 4, day 4) was “no significant change; also recorded: prevented the 2′-CH3-MPTP-induced retinal toxicity”. Besides, in the data set with transgenic GFAP-GFP mice [1] (DBZIM 25 mg/kg ip plus 2′-CH3-MPTP, FIG. 3), the “apparent retinal neurotoxicity in composite retinal images” value is listed as “no apparent neurotoxicity”.
